{
  "source": "the NIST ThermoML archive (doi:10.1016/j.jct.2013.09.032)",
  "key": {"[1]": {"conditions": "for mass density / viscosity: 101.33 kPa, Liquid; for mass density: Vibrating tube method; for viscosity: Falling or rolling sphere viscometry"}, "[2]": {"test": "refractive index (Na D-line) (dimensionless)", "conditions": "101.33 kPa, Liquid, Standard Abbe refractometry"}},
  "note": "Numbers after ± are expanded uncertainties.",
  "data": [
    {"smiles": "CCCC[n+]1cccc(C#N)c1.O=S(=O)([N-]S(=O)(=O)C(F)(F)F)C(F)(F)F", "note": "[1-butyl-3-cyanopyridinium bis(trifluoromethylsulfonyl)imide]", "values": [
      {"measurement": "mass density", "setting": "[1]; 298.15 K", "value": "1479.79 ± 2.1", "unit": "kg/m3"}
    ]},
    {"smiles": "CCCCCC[n+]1ccc(C#N)cc1.O=S(=O)([N-]S(=O)(=O)C(F)(F)F)C(F)(F)F", "note": "[1-hexyl-4-cyanopyridinium bis(trifluoromethylsulfonyl)imide]", "values": [
      {"measurement": "mass density", "setting": "[1]; 298.15 K", "value": "1407 ± 1.9", "unit": "kg/m3"}
    ]},
    {"smiles": "CCCO", "note": "[propan-1-ol]", "values": [
      {"measurement": "mass density", "setting": "[1]; 298.15 K", "value": "799.52 ± 1", "unit": "kg/m3"},
      {"measurement": "refractive index", "setting": "[2]; 298.15 K", "value": "1.38375 ± 0.00068"}
    ]},
    {"smiles": "CCCCCCC", "note": "[heptane]", "values": [
      {"measurement": "mass density", "setting": "[1]; 298.15 K", "value": "679.48 ± 1", "unit": "kg/m3"},
      {"measurement": "refractive index", "setting": "[2]; 298.15 K", "value": "1.38519 ± 0.00068"}
    ]},
    {"smiles": "CCCC[n+]1ccc(C#N)cc1.O=S(=O)([N-]S(=O)(=O)C(F)(F)F)C(F)(F)F", "note": "[1-butyl-4-cyanopyridinium bis(trifluoromethylsulfonyl)imide]", "values": [
      {"measurement": "mass density", "setting": "[1]; 278.15 K", "value": "1492.99 ± 2.1", "unit": "kg/m3"},
      {"measurement": "mass density", "setting": "[1]; 288.15 K", "value": "1483.58 ± 2.1", "unit": "kg/m3"},
      {"measurement": "mass density", "setting": "[1]; 298.15 K", "value": "1474.23 ± 2.1", "unit": "kg/m3"},
      {"measurement": "viscosity", "setting": "[1]; 308.15 K", "value": "250.45 ± 14", "unit": "mPa·s"},
      {"measurement": "mass density", "setting": "[1]; 308.15 K", "value": "1465.05 ± 2", "unit": "kg/m3"},
      {"measurement": "viscosity", "setting": "[1]; 318.15 K", "value": "138.28 ± 5.4", "unit": "mPa·s"},
      {"measurement": "mass density", "setting": "[1]; 318.15 K", "value": "1455.88 ± 2", "unit": "kg/m3"},
      {"measurement": "viscosity", "setting": "[1]; 328.15 K", "value": "83.59 ± 2.3", "unit": "mPa·s"},
      {"measurement": "mass density", "setting": "[1]; 328.15 K", "value": "1446.76 ± 2", "unit": "kg/m3"},
      {"measurement": "viscosity", "setting": "[1]; 338.15 K", "value": "54.47 ± 1.2", "unit": "mPa·s"},
      {"measurement": "mass density", "setting": "[1]; 338.15 K", "value": "1437.73 ± 2", "unit": "kg/m3"},
      {"measurement": "viscosity", "setting": "[1]; 348.15 K", "value": "37.59 ± 0.89", "unit": "mPa·s"},
      {"measurement": "mass density", "setting": "[1]; 348.15 K", "value": "1428.78 ± 2", "unit": "kg/m3"},
      {"measurement": "viscosity", "setting": "[1]; 358.15 K", "value": "27.24 ± 0.65", "unit": "mPa·s"},
      {"measurement": "mass density", "setting": "[1]; 358.15 K", "value": "1419.9 ± 1.9", "unit": "kg/m3"},
      {"measurement": "Glass transition temperature", "setting": "[1]; Glass, DTA", "value": "-54 ± 3.8", "unit": "°C"}
    ]},
    {"smiles": "c1ccsc1", "note": "[thiophene]", "values": [
      {"measurement": "mass density", "setting": "[1]; 298.15 K", "value": "1058.64 ± 1", "unit": "kg/m3"},
      {"measurement": "refractive index", "setting": "[2]; 298.15 K", "value": "1.52527 ± 0.0007"}
    ]},
    {"smiles": "CC(C)=O", "note": "[acetone]", "values": [
      {"measurement": "mass density", "setting": "[1]; 298.15 K", "value": "785.23 ± 1", "unit": "kg/m3"},
      {"measurement": "refractive index", "setting": "[2]; 298.15 K", "value": "1.356 ± 0.0007"}
    ]},
    {"smiles": "c1ccc2sccc2c1", "note": "[benzo[b]thiophene]", "values": [
      {"measurement": "mass density", "setting": "[1]; 308.15 K", "value": "1150.55 ± 1.1", "unit": "kg/m3"},
      {"measurement": "mass density", "setting": "[1]; 310.15 K", "value": "1149.31 ± 1.1", "unit": "kg/m3"},
      {"measurement": "mass density", "setting": "[1]; 313.15 K", "value": "1146.05 ± 1.1", "unit": "kg/m3"},
      {"measurement": "mass density", "setting": "[1]; 318.15 K", "value": "1141.56 ± 1.1", "unit": "kg/m3"},
      {"measurement": "mass density", "setting": "[1]; 323.15 K", "value": "1137.07 ± 1.1", "unit": "kg/m3"},
      {"measurement": "mass density", "setting": "[1]; 328.15 K", "value": "1132.58 ± 1.1", "unit": "kg/m3"},
      {"measurement": "mass density", "setting": "[1]; 333.15 K", "value": "1128.08 ± 1.1", "unit": "kg/m3"},
      {"measurement": "mass density", "setting": "[1]; 338.15 K", "value": "1123.59 ± 1", "unit": "kg/m3"},
      {"measurement": "mass density", "setting": "[1]; 343.15 K", "value": "1119.1 ± 1", "unit": "kg/m3"},
      {"measurement": "mass density", "setting": "[1]; 348.15 K", "value": "1114.61 ± 1", "unit": "kg/m3"},
      {"measurement": "mass density", "setting": "[1]; 353.15 K", "value": "1110.11 ± 1", "unit": "kg/m3"},
      {"measurement": "mass density", "setting": "[1]; 358.15 K", "value": "1105.61 ± 1", "unit": "kg/m3"},
      {"measurement": "mass density", "setting": "[1]; 363.15 K", "value": "1101.11 ± 1", "unit": "kg/m3"},
      {"measurement": "refractive index", "setting": "[2]; 310.15 K", "value": "1.638 ± 0.0007"}
    ]}
  ]
}
